Data published in paper PMC3728333, “Development of an Epidermal Growth Factor Derivative with EGFR Blocking Activity” (PLoS ONE, 2013).

Legend:
[1] = system: EGFR; conditions: ref [30]; cited from earlier work
From the text: The binding of EGF through the three interaction sites of EGFR shifts the equilibrium between the two distinct EGFR conformations to the untethered one, enabling the dimerization arm in domain II to interact with an identical dimerization arm of another receptor to form the dimer, [14].

[2] = system: EGFR; conditions: ref [11], [12], cited from earlier work
From the text: (§1) Our group has previously described that the Potato Carboxypeptidase Inhibitor (PCI) is an antagonist of human EGF. PCI is a 39-residue protein folded into a 27-residue globular core stabilized by three disulfide bonds that adopts the same conformation as EGF, the T-Knot scaffold. This similar structure probably accounts for the antagonistic activity.

[3] = system: human cancer cell lines; conditions: several human cancer cell lines; ref [11], [12]; cited from earlier work
From the text: as §1

[4] = system: EGFR; conditions: ref [39], [40]; cited from earlier work
From the text: It is known that activated EGFR traffics from the plasma membrane to the cytoplasm through endocytic vesicles. Then, internalized EGFR can be eventually degraded in lysosomes, or recycled to the plasma membrane. Moreover, several reports have identified additional intracellular destinations for the internalized receptor, including ...

[5] = system: MCF-7 cells; assay: Cell proliferation (MTT), MCF-7; format: cell-based, human; conditions: MCF-7, 20 and 150 nM, 72 h (3 days), medium without FBS, vs untreated
Protocol: (§2) The optimal cell seeding concentration was previously established for both cell types, as described in the supporting information (Fig S1), in order to maintain the cells in an exponential growth phase along the experiment. The cells were allowed to attach and grow for 72 h in culture medium, then the cells were washed and medium without FBS was added to the cells for 24 h. […] The treatments were removed, and the cells were washed with PBS and incubated for 3 h with 100 μl of fresh culture medium together with 10 μl of MTT (3-(4,5-dimethylthiazol-2-yl)-2,5-diphenyltetrazolium bromide) (Sigma-Aldrich, St. Louis, MO, USA). Medium was discarded and dimethyl sulfoxide (DMSO) (Sigma-Aldrich, St. Louis, MO, USA) was added to each well to dissolve the purple formazan crystals. Plates were agitated at room temperature for 10 min and the absorbance of each well was determined with an absorbance microplate reader (ELx800, BioTek, Winooski, VT, USA) at a wavelength of 570 nm. Three replicates were used for each treatment. The cell viability was determined as a percentage of the untreated control cells, by dividing the mean absorbance of each treatment by the mean absorbance of the untreated cells.

[6] = system: Caco-2 cells; assay: Cell proliferation (MTT), Caco-2; format: cell-based, human; conditions: Caco-2, any concentration tested (10, 20 and 150 nM), 96 h (4 days), medium without FBS, vs untreated
Protocol: as §2

Compound: Cc1ccc(C(=O)Nc2ccc(S(=O)(=O)O)c3cc(S(=O)(=O)O)cc(S(=O)(=O)O)c23)cc1NC(=O)c1cccc(NC(=O)Nc2cccc(C(=O)Nc3cc(C(=O)Nc4ccc(S(=O)(=O)O)c5cc(S(=O)(=O)O)cc(S(=O)(=O)O)c45)ccc3C)c2)c1 [suramin]
- interference with hEGF-EGFR interaction [1]: prevents hEGF from interacting with EGFR at site 3

Compound: Potato Carboxypeptidase Inhibitor (QQHADPICNKPCKTHDDCSGAWFCQACWNSARTCGPYVG; UniProt P01075 1-39, looked up) [PCI, 39-residue protein folded into a 27-residue globular core stabilized by three disulfide bonds]
- affinity for EGFR (in words) ([2]; earlier work): very low
- EGFR activation [2]: inhibited EGFR activation
- EGFR down regulation [2]: induced the down regulation of the receptor
- competition with EGF for binding to EGFR [2]: competed with EGF for binding to EGFR
- effective concentration compared to EGFt/hEGF (in words) [2]: one order of magnitude higher (μM)
- anti-proliferative activity in vitro [3]: showed anti-proliferative activity in vitro in several human cancer cell lines

Compound: TGF-α: EGFR native ligand
- stability of binding to EGFR at pH of endosomes [4]: rapidly dissociates from the receptor when exposed to the low pH of endosomes

Compound: human Epidermal Growth Factor [hEGF]
- cell proliferation (in words) [5]: proliferative effect
- cell proliferation (in words) [6]: moderated but significant proliferative effect
- stability of binding to EGFR at pH of endosomes [4]: relatively more stable at the pH of endosomes
